Tests used:
[1] = system: Pyrenophora tritici-repentis (PYRNTR); assay: Pyrenophora tritici-repentis test (wheat), field trial DEU-NWU3; format: in vivo; conditions: sprayed twice, 43 DAB, BBCH 83, 75 g/ha (I), 75 g/ha (II), 150 g/ha (III), 75 + 75 + 150 g/ha combination; for Rating Scale: % Rating Type: Mean (Plant Part Rated: FL-0-1): disease rating, untreated control 2.8
[2] = system: Leptosphaeria nodorum (LEPTNO); assay: Leptosphaeria nodorum test (wheat), field trial DEU-S826; format: in vivo; conditions: sprayed twice, 18 DAB, BBCH 69, 75 g/ha (I), 75 g/ha (II), 150 g/ha (III), 75 + 75 + 150 g/ha combination; for Rating Scale: % Rating Type: Mean (Plant Part Rated: LEALOW): disease rating, untreated control 23.1
[3] = system: Septoria tritici (SEPTTR); assay: Septoria tritici test (wheat), field trial FRA-AJ28; format: in vivo; conditions: sprayed twice, 47 DAB, BBCH 77, 75 g/ha (I), 75 g/ha (II), 150 g/ha (III), 75 + 75 + 150 g/ha combination; for Rating Scale: % Rating Type: Mean (Plant Part Rated: LEAF): disease rating, untreated control 95.0
[4] = system: Alternaria alternata SDH-mutants; conditions: in vitro; Avenot et al., Crop Protection 29 (2010) 643-651; cited from earlier work
[5] = system: Drechslera tritici-repentis (DTR, also named Pyrenophora tritici-repentis); assay: Curative potential against Drechslera tritici-repentis (tan spot) in winter wheat; format: in vivo; conditions: infected leaf area 21 days after inoculation; for Efficacy [% Abbott] 1 dai: application 1 day after inoculation; for Efficacy [% Abbott] 4 dai: application 4 days after inoculation
[6] = system: Septoria tritici (Mycosphaerella graminicola); assay: Protective and curative potential against Septoria tritici in winter wheat, quantification of Septoria-DNA (SeptoCast); format: in vivo; conditions: 21 days after inoculation, dose rates Table 5
[7] = system: Septoria tritici (Mycosphaerella graminicola); assay: Protective and curative potential against Septoria tritici in winter wheat, visual assessment of infested leaf area; format: in vivo; conditions: assessed 21 days after inoculation, dose rates Table 5: BIX 0.6, BIX+FLU 0.75, BIX+PTZ 1, BIX+FLU+PTZ 1 l/ha
[8] = solo compound at 97.5 g a.i./ha
[9] = curative, application 1 day after inoculation
[10] = curative, application 4 days after inoculation
[11] = curative, application 8 days after inoculation
[12] = curative, application 11 days after inoculation
[13] = preventive, application 1 day before inoculation
[14] = preventive, application 4 days before inoculation
[15] = preventive, application 8 days before inoculation
[16] = preventive, application 11 days before inoculation

Row | SMILES | Rating Scale: % Rating Type: Mean (Plant Part Rated: FL-0-1) [1] [%] | % ABBOTT [1] [%] | Efficacy [%] % found [1] [%] | Rating Scale: % Rating Type: Mean (Plant Part Rated: LEALOW) [2] [%] | % ABBOTT [2] [%] | Efficacy [%] % found [2] [%] | Rating Scale: % Rating Type: Mean (Plant Part Rated: LEAF) [3] [%] | % ABBOTT [3] [%] | Efficacy [%] % found [3] [%] | effect on mycelial growth of boscalid-resistant isolates carrying SDH-mutations [4] | Efficacy [% Abbott] 1 dai [5, 8] [% Abbott] | Efficacy [% Abbott] 4 dai [5, 8] [% Abbott] | Efficacy [% Abbott] 1 dai ([5]; solo compound at 125 g a.i./ha) [% Abbott] | Efficacy [% Abbott] 4 dai ([5]; solo compound at 125 g a.i./ha) [% Abbott] | other results
1 | OC(Cc1ccccc1Cl)(Cn1nc[nH]c1=S)C1(Cl)CC1 (stereo not shown) [(III) Prothioconazole, prothioconazole] | 1.8 | 36.4 | 36.4 | 6.4 | 72.4 | 72.4 | 30.0 | 68.4 | 68.4 | – | – | – | – | – | –
2 | CC(C)CC(C)c1sccc1NC(=O)c1cn(C)nc1C(F)(F)F (stereo not shown) [penthiopyrad] | – | – | – | – | – | – | – | – | – | not affected | – | – | – | – | –
3 | Cn1cc(C(=O)Nc2ccccc2-c2cc(F)c(F)c(F)c2)c(C(F)F)n1 [Fluxapyroxad, fluxapyroxad] | – | – | – | – | – | – | – | – | – | – | 93 | 24 | 94 | 32 | –
4 | O=C(NCCc1ncc(C(F)(F)F)cc1Cl)c1ccccc1C(F)(F)F [Fluopyram, N-{2-[3-chloro-5-(trifluoromethyl)-2-pyridyl]ethyl}-α,α,α-trifluoro-ortho-toluamide] | 2.3 | 18.2 | 18.2 | 10.9 | 53.0 | 53.0 | 52.5 | 44.7 | 44.7 | strongly inhibited the mycelial growth | 97 | 49 | – | – | –
5 | Cn1cc(C(=O)Nc2ccc(F)cc2-c2ccc(Cl)c(Cl)c2)c(C(F)F)n1 [Bixafen, bixafen] | 2.3 | 18.2 | 18.2 | 14.7 | 36.5 | 36.5 | 36.3 | 61.8 | 61.8 | – | 91 | 38 | 91 | 32 | DNA Quantification [Septoria DNA], relative copynumbers, 1 dai [6, 9]: 135 n; DNA Quantification [Septoria DNA], relative copynumbers, 4 dai [6, 10]: 416 n; DNA Quantification [Septoria DNA], relative copynumbers, 8 dai [6, 11]: 10421 n; DNA Quantification [Septoria DNA], relative copynumbers, 11 dai [6, 12]: 19806 n; DNA Quantification [Septoria DNA], relative copy numbers, 1 dbi [6, 13]: 120 n; DNA Quantification [Septoria DNA], relative copy numbers, 4 dbi [6, 14]: 141 n; DNA Quantification [Septoria DNA], relative copy numbers, 8 dbi [6, 15]: 428 n; DNA Quantification [Septoria DNA], relative copy numbers, 11 dbi [6, 16]: 2853 n; Visual assessment [%] ABBOTT, 1 dai [7, 9]: 100%; Visual assessment [%] ABBOTT, 4 dai [7, 10]: 100%; Visual assessment [%] ABBOTT, 8 dai [7, 11]: 81.1%; Visual assessment [%] ABBOTT, 11 dai [7, 12]: 80.2%; Visual assessment [%] ABBOTT, 1 dbi [7, 13]: 100%; Visual assessment [%] ABBOTT, 4 dbi [7, 14]: 100%; Visual assessment [%] ABBOTT, 8 dbi [7, 15]: 96.7%; Visual assessment [%] ABBOTT, 11 dbi [7, 16]: 88.7%
